# Test results: ChEMBL document CHEMBL1201862, “PubChem BioAssay data set” (2004)
#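 Step 1: Grow cells in 96-well plates. Step 2: Expose to compound for 48 hours at 5 concentrations. Step 3: Interpolate endpoints linearly; if unreached, use highest concentration. GI50 is the concentration that inhibits growth by half.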 The source made the active and inactive calls. Rule as the data show it: active = GI50 up to about 1.1 µM and inactive = higher.
# Columns and labels:
# Assay in all cases: NCI tumour cell line growth inhibition, 48 h
# T47D = test system: T47D
# NCI/ADR-RES = test system: NCI/ADR-RES
# HCT-15 = test system: HCT-15
# ACHN = test system: ACHN
# SF-539 = test system: SF-539
# MOLT-4 = test system: MOLT-4
# NCI-H23 = test system: NCI-H23
# HOP-92 = test system: HOP-92
# TK-10 = test system: TK-10
# OVCAR-8 = test system: OVCAR-8
# M14 = test system: M14
# EKVX = test system: EKVX
# HT-29 = test system: HT-29
# HCT-116 = test system: HCT-116
# SK-MEL-28 = test system: SK-MEL-28
# Malme-3M = test system: Malme-3M
# K562 = test system: K562
# UO-31 = test system: UO-31
# SK-MEL-5 = test system: SK-MEL-5
# COLO 205 = test system: COLO 205
Compound,GI50 (T47D),GI50 (NCI/ADR-RES),GI50 (HCT-15),GI50 (ACHN),GI50 (SF-539),GI50 (MOLT-4),GI50 (NCI-H23),GI50 (HOP-92),GI50 (TK-10),GI50 (OVCAR-8),GI50 (M14),GI50 (EKVX),GI50 (HT-29),GI50 (HCT-116),GI50 (SK-MEL-28),GI50 (Malme-3M),GI50 (K562),GI50 (UO-31),GI50 (SK-MEL-5),GI50 (COLO 205)
COc1ccc(C(=O)/C=C/c2ccc(OCC(=O)N3CCN(c4ccccc4)CC3)cc2)cc1,35.6 µM (inactive),43.2 µM (inactive),54.7 µM,63.1 µM (inactive),18.9 µM (inactive),> 26.7 µM (inactive),38.6 µM (inactive),14.2 µM (inactive),44.7 µM (inactive),71 µM (inactive),> 100 µM (inactive),> 70.5 µM (inactive),> 100 µM (inactive),64.6 µM (inactive),> 100 µM (inactive),> 80.7 µM (inactive),> 60.5 µM (inactive),44.2 µM (inactive),59.6 µM (inactive),> 64.6 µM (inactive)
O=C(N/N=C/c1ccccc1)c1c(F)c(F)c(F)c(F)c1F,> 100 µM (inactive),> 100 µM (inactive),50.1 µM,> 100 µM (inactive),67 µM (inactive),> 100 µM (inactive),> 100 µM (inactive),79.6 µM (inactive),> 100 µM (inactive),> 100 µM (inactive),56.8 µM (inactive),> 100 µM (inactive),54.2 µM (inactive),56 µM (inactive),> 100 µM (inactive),> 100 µM (inactive),> 100 µM (inactive),> 100 µM (inactive),> 100 µM (inactive),> 100 µM (inactive)
O=C(O)CN(CC(=O)O)C(C(=O)O)c1ccccc1 (centres undefined),> 100 µM (inactive),> 100 µM (inactive),> 100 µM,> 100 µM (inactive),> 100 µM (inactive),> 100 µM (inactive),> 100 µM (inactive),> 100 µM (inactive),> 100 µM (inactive),> 100 µM (inactive),> 100 µM (inactive),> 100 µM (inactive),> 100 µM (inactive),> 100 µM (inactive),> 100 µM (inactive),> 100 µM (inactive),> 100 µM (inactive),> 100 µM (inactive),> 100 µM (inactive),> 100 µM (inactive)
Cc1ccc(NC(=O)C(Cc2c[nH]c3ccccc23)NC(=O)Oc2ccccc2)cc1C (centres undefined),39.5 µM (inactive),83.8 µM (inactive),62.4 µM,84.3 µM (inactive),> 100 µM (inactive),57.5 µM (inactive),> 100 µM (inactive),27.7 µM (inactive),0.728 µM (active),57.5 µM (inactive),74.8 µM (inactive),59.7 µM (inactive),41.3 µM (inactive),61.5 µM (inactive),> 100 µM (inactive),14.3 µM (inactive),59 µM (inactive),77.6 µM (inactive),44.1 µM (inactive),50.4 µM (inactive)
CCOC(=O)c1c(C)n(-c2ccc(C)cc2)c(=O)c2ccccc2c(=O)c2c(=O)ccc(=O)c1=2,20 µM (inactive),18.5 µM (inactive),14.3 µM,13.4 µM (inactive),21.9 µM (inactive),2.87 µM (inactive),15.5 µM (inactive),16.2 µM (inactive),15.5 µM (inactive),16.2 µM (inactive),20.4 µM (inactive),21.6 µM (inactive),12.2 µM (inactive),17.2 µM (inactive),12.2 µM (inactive),17 µM (inactive),15.2 µM (inactive),23.4 µM (inactive),14.7 µM (inactive),15.2 µM (inactive)
O=C1c2ccccc2C(=O)N1/N=C1/SC(=N\c2ccccc2)/C(=N/c2ccccc2)N1c1ccccc1,> 100 µM (inactive),> 100 µM (inactive),> 47.5 µM,> 66.4 µM (inactive),33.2 µM (inactive),> 65.8 µM (inactive),> 46.8 µM (inactive),> 27.9 µM (inactive),> 58.5 µM (inactive),40.1 µM (inactive),77.1 µM (inactive),> 76.9 µM (inactive),> 50 µM (inactive),38.6 µM (inactive),> 35.1 µM (inactive),> 47.3 µM (inactive),> 60 µM (inactive),25.7 µM (inactive),> 39 µM (inactive),> 85.3 µM (inactive)
O=C1Cc2cn[nH]c2-c2ccccc2N1,36 µM (inactive),38.4 µM (inactive),23.8 µM,28.8 µM (inactive),38.8 µM (inactive),20.1 µM (inactive),29.9 µM (inactive),8.45 µM (inactive),30.2 µM (inactive),35 µM (inactive),22.5 µM (inactive),34.7 µM (inactive),34.9 µM (inactive),26.5 µM (inactive),63.1 µM (inactive),> 46.7 µM (inactive),21.9 µM (inactive),32.7 µM (inactive),26.4 µM (inactive),29 µM (inactive)
COc1ccc(/N=C(\C)c2ccncc2)cc1,> 100 µM (inactive),> 100 µM (inactive),32.1 µM,34.7 µM (inactive),21 µM (inactive),> 100 µM (inactive),89.3 µM (inactive),> 100 µM (inactive),> 100 µM (inactive),> 100 µM (inactive),> 100 µM (inactive),> 100 µM (inactive),> 100 µM (inactive),> 100 µM (inactive),> 100 µM (inactive),> 100 µM (inactive),> 100 µM (inactive),24.2 µM (inactive),94.8 µM (inactive),> 100 µM (inactive)
O=C1C[C@H](Sc2ccccc2)C2(OCCO2)[C@@H](Sc2ccccc2)C1,5.13 µM (inactive),1.88 µM (inactive),1.68 µM,1.77 µM (inactive),0.998 µM (active),0.26 µM (active),2.09 µM (inactive),1.9 µM (inactive),1.95 µM (inactive),1.73 µM (inactive),1.78 µM (inactive),4.52 µM (inactive),1.64 µM (inactive),1.6 µM (inactive),2.38 µM (inactive),1.81 µM (inactive),0.351 µM (active),1.23 µM (inactive),1.64 µM (inactive),4.28 µM (inactive)
CCN(CCCl)c1cc(CN(C)C)cc(NC(=O)c2ccc(C(=O)Nc3cccc(N(CCCl)NN)c3)cc2)c1,0.0612 µM (active),1.97 µM (inactive),0.455 µM,< 0.01 µM (active),0.16 µM (active),< 0.01 µM (active),0.0242 µM (active),0.0789 µM (active),0.296 µM (active),0.0246 µM (active),0.0224 µM (active),–,0.0154 µM (active),0.0277 µM (active),0.192 µM (active),0.0224 µM (active),0.014 µM (active),0.462 µM (active),0.0461 µM (active),0.0635 µM (active)
